Source: patent US20070122830A1, “Prohibitin-directed diagnostics and therapeutics for cancer and chemotherapeutic drug resistance” (Aurelium BioPharma Inc., priority 2005, published 2007)

Legend:
prohibitin = assay: Prohibitin silencing by siRNA in SKOV3 cells, anti-prohibitin immunoblot; assay type: cell-based, human; details: for decrease in prohibitin: FIG. 7
Excerpt: To establish the importance of prohibitin to the expression of the drug-resistant phenotype in MDA cell lines, prohibitin expression was silenced using RNAi. Briefly, the following siRNA duplexes targeting the human prohibitin mRNA were designed and purchased either from Ambion (Austin, Tex.) or Invitrogen (Carlsbad, Calif.). The siRNA duplex sequences corresponding to nucleotides 425 through 443 (GenBank SEQ ID NUMBER: U49725.1) targeting the start of the prohibitin mRNA transcript were:
For a typical siRNA transfection, 1 nmole of the annealed siRNA duplex was mixed with 1.4 ml of Opti-MEM reagent (Invitrogen). In another tube, […] of Oligofectamine reagent (Invitrogen, Carlsbad, Calif.) was mixed with […] of Opti-MEM. The two solutions were combined and mixed gently by inversion and incubated for 20 min. at RT. The resulting solution was added to the cultured cells drop by drop in a 10 cm dish (cells are approximately 40-50% confluent). The next day the transfected cells were trypsinized and seeded in 6 or 96-well plates and further incubated for the indicated amount of time (assay dependent) before further analysis.
Targeted silencing of prohibitin was performed as described in Example 2 above.

MCF-7/ADR xenografts = assay: Mammary adenocarcinoma xenografts in nude mice, prohibitin siRNA plus chemotherapy; assay type: in vivo
Protocol: (§1) In further studies, the efficacy of a prohibitin-targeted therapeutic in treating mammary adenocarcinoma cells (MCF-7/AR) is assessed. Briefly, male […] nude mice 5 to 7 weeks old, weighing 18 g to 22 g, are used for the MCF-7/ADR xenografts. Mice receive a subcutaneous (s.c.) injection of the cells using 5×10^5 cells/inoculation under the shoulder. […] The animal's weight is measured every 4 days. Tumor growth starting on the first day of treatment is measured and the volume of the xenograft is monitored every 4 days. The mice are anaesthetized and sacrificed when the mean tumor weight is over 1 g in the control group. Tumor tissue is excised from the mice and its weight is measured. Tumor weights from mice treated with the prohibitin siRNA and chemotherapeutic drugs are compared to tumor weights from mice treated with control siRNA and chemotherapeutic drugs. Cell counts are compared. All experiments are performed in triplicate.
as §1, with “treating a” for “treating”, “(MCF-7)” for “(MCF-7/AR)”, “an s.c.” for “a subcutaneous (s.c.)”, “drugs.” for “drugs. Cell counts are compared. All experiments are performed in triplicate.”
In further studies, the efficacy of a prohibitin-targeted therapeutic in treating a mammary adenocarcinoma cells (MCF-7) is assessed. Briefly, male […] nude mice 5 to 7 weeks old, weighing 18 g to 22 g, are used for the MCF-7/ADR xenografts. Mice receive an s.c. injection of the cells using […] cells/inoculation under the shoulder.
Liposome formulations are produced as described previously (Shi et al. (2000) Proc. Natl. Acad. Sci. USA. 97(13): 7567-7572). Briefly, POPC ([…]), DDAB (0.2 μmol), DSPE-PEG 2000 (0.6 μmol), and DSPE-PEG 2000-maleimide (30 nmol) are dissolved in chloroform/methanol (2:1, vol:vol) […] a brief period of evaporation. The lipids are dispersed in 1 ml 0.05 M Tris-HCl buffer, pH 8.0, and are sonicated for 10 min. Prohibitin siRNA is added to the lipids. The liposome/siRNA dispersion is evaporated to a final concentration of 200 mM at a volume of 100 μl. The dispersion is frozen in ethanol/dry ice for 4 to 5 min. The dispersion is then thawed at 40° C. for 1 min. to 2 min., and this freeze-thaw cycle is repeated 10 times. The liposome dispersion is diluted to a lipid concentration of 40 mM, is followed by extrusion 10 times each through two stacks each of 400 nm, 200 nm, 100 nm, and 50 nm pore size polycarbonate membranes, by using a hand held extruder (Avestin, Ottawa). The mean vesicle diameters are determined by quasielastic light scattering using a Microtrac Ultrafine Particle Analyzer (Leeds-Northrup, St. Petersburg, Fla.).
The animal's weight is measured every 4 days. Tumor growth starting on the first day of treatment is measured and the volume of the xenograft is monitored every 4 days. The mice are anaesthetized and sacrificed when the mean tumor weight is over 1 g in the control group. Tumor tissue is excised from the mice and its weight is measured. Tumor weights from mice treated with the prohibitin siRNA and chemotherapeutic drugs are compared to tumor weights from mice treated with control siRNA and chemotherapeutic drugs.
In further studies, the efficacy of a prohibitin-targeted therapeutic in treating a mammary adenocarcinoma cells (MCF-7) is assessed. […]

[1] = Example 10, siRNA/liposome formulation
[2] = Example 11, siRNA/immunoliposome formulation

prohibitin siRNA: siRNA duplex to human prohibitin mRNA nt 425-443; sense 5′-GGAAGUGGUCUGUCUGUUAtt-3′, antisense 5′-UAACAGACAGACCACUUCCtt-3′ (sense GGAAGUGGUCUGUCUGUUATT; antisense UAACAGACAGACCACUUCCTT; chemistry not given here)
repeat of prohibitin silencing (prohibitin; FIG. 8): confirmed, albeit with increased prohibitin expression | decrease in prohibitin (prohibitin; six days after treatment): 71% | decrease in prohibitin (prohibitin; three days after treatment): ~93% | total cell numbers of tumors vs control siRNA (MCF-7/ADR xenografts; Example 8, MCF-7/AR cells): lower | tumor weight vs control siRNA (MCF-7/ADR xenografts; Example 8, MCF-7/AR cells): smaller tumors by weight | total cell number in tumors vs control siRNA (MCF-7/ADR xenografts; Example 9, MCF-7): lower | tumor weight vs control siRNA (MCF-7/ADR xenografts; Example 9, MCF-7): smaller tumors by weight | total cell number in tumors vs control siRNA (MCF-7/ADR xenografts; [1]): lower | tumor weight vs control siRNA (MCF-7/ADR xenografts; [1]): smaller tumors by weight | total cell number in tumors vs control siRNA (MCF-7/ADR xenografts; [2]): lower | tumor weight vs control siRNA (MCF-7/ADR xenografts; [2]): smaller tumors by weight
